Measured values taken from patent publication US9180115B2, “Cyclohexylamines” (Asana Biosciences, LLC, priority 2011, dated 2015).
Several values for one entry are separate records, joined by “and”; a condition that tells them apart may be missing. Equal values may be shown once. Read-outs that look alike come from different tables or passages of the source.

Legend:
[1] = tested on: sodium channel response in hTRPV1-N1E115 cells; test: FLIPR membrane potential assay of sodium channel response in hTRPV1-N1E115 cells with or without heat (47° C.) activation; type: cell-based; conditions: for hTRPV1-N1E Nav 0.1 mM (% inhibition) 25° C. / hTRPV1-N1E Nav 1 mM (% inhibition) 25° C.: 25° C. (no heat activation); for hTRPV1-N1E Nav 0.1 mM (% inhibition) 47° C. / hTRPV1-N1E Nav 1 mM (% inhibition) 47° C.: 47° C. (heat activated); for IC50: read-out: hTRPV1-N1E IC50 (μM) 47° C.
Description: In one embodiment, a modified FLIPR® (Fluorometric Imaging Plate Reader) based assay system was developed which is capable of discriminating between non-specific versus hTRPV1-mediated entry of test compounds. Advantageously, the assay system utilizes heat activated opening of hTRPV1 channels followed by an assessment of internal sodium channel block. The assay allows a permanently charged compound to selectively enter through opened hTRPV1 channels and that compound's potency in inhibiting sodium channels from the cytoplasm side of the same cell can be assessed and quantified.
The test compounds are diluted in the Assay Buffer and added to each well of a specific 384-well ‘compound plate’, which serves as a source plate for compound addition using the FLIPR® platform. The concentration of compounds in the compound-plate was adjusted to achieve the desired final concentration when added to the cells in the ‘cell-plate’. After completion of the dye incubation period, the dye loaded cell-plates and the compound source plates are inserted into the FLIPR® Tetra device with a 384 FLIPR® tip box (Molecular Devices, Inc.) according to manufacturer's instructions. The compounds are robotically added to the dye loaded cell-plates using software integral to the FLIPR® Tetra instrument.
Immediately following compound addition, hTRPV1 is activated, in one of the duplicate cell plates, by heating. Specifically, entire multi-well plate containing the compound-cells mixture is incubated at 47° C. for 10 minutes, after which they are returned to room temperature (about 25° C.) for a further 30 minutes. Heat activation of hTRPV1 was omitted from the replicate cell plate which was simply maintained at room temperature for the entire 40 minutes.
A membrane potential response is elicited in the dye- and compound-loaded cells by the addition of veratridine which is a known sodium channel ‘agonist’. As illustrated in an example herein, an agonist plate containing veratridine (Sigma) is prepared in advance and is inserted into suitable devices such as, e.g., the FLIPR® TETRA device for a “2nd addition” as instructed by the manufacturer. The concentration of veratridine in the ‘agonist plate’ was adjusted to achieve a final concentration of 100 μM when added to the cells in the cell-plate. Final concentrations of veratridine greater or lesser than 100 μM may also be used but the signal measured by the FLIPR® TETRA device or another suitable device may vary accordingly.
The exposure of the cells in the cell-plate to veratridine induces sodium channels in the cells to open and the resulting ion flux produces a membrane potential depolarization that is detected as a fluorescence signal by the FLIPR® Tetra Device. The activity of test compounds is determined by their ability to attenuate the veratridine-induced fluorescence signal, the most promising compounds are those that show an enhanced activity in the heat-activated cell plate over the non-heat-activated cell plate. This differential activity reflects enhanced compound uptake via the heat activated and open hTRPV1 channels and rests on the fact that sodium channel block requires test compounds to act from the cytoplasmic side of the cell membrane.
In vitro assays were developed for assessing the inhibition of sodium channel response with compounds following stimulation by heat (47° C.) in cells expressing hTRPV1.
(v) Membrane potential Assay to Assess Sodium Channel Function in hTRPV1-Expressing Cells • Cells were plated at 5000 per 50 μL [DMEM+10% FBS+300 μg/mL H\hygromycin] per well, in a 384 clear bottom poly-D-lysine coated plate and incubated at 37° C. and 5% CO2 for 48 hours. On the day of the assay, media were discarded gently and 30 μL of the dye [FMP blue dye was prepared in assay buffer] per well was added and dye-loading was allowed to proceed for 20 min at room temperature. […]

[2] = tested on: Male Sprague Dawley (SD) rats; test: In vivo assay of mechanical nociception (rat pinch model, perisciatic injection)
[3] = biological target: T1, human Nav1.5 sodium channel (Homo sapiens, UniProt Q14524); test: FLIPR membrane potential assay in hNav1.5-HEK293 cells; type: cell-based
T1 construct: host or cells: HEK-293
T1 sequence (Q14524 whole entry): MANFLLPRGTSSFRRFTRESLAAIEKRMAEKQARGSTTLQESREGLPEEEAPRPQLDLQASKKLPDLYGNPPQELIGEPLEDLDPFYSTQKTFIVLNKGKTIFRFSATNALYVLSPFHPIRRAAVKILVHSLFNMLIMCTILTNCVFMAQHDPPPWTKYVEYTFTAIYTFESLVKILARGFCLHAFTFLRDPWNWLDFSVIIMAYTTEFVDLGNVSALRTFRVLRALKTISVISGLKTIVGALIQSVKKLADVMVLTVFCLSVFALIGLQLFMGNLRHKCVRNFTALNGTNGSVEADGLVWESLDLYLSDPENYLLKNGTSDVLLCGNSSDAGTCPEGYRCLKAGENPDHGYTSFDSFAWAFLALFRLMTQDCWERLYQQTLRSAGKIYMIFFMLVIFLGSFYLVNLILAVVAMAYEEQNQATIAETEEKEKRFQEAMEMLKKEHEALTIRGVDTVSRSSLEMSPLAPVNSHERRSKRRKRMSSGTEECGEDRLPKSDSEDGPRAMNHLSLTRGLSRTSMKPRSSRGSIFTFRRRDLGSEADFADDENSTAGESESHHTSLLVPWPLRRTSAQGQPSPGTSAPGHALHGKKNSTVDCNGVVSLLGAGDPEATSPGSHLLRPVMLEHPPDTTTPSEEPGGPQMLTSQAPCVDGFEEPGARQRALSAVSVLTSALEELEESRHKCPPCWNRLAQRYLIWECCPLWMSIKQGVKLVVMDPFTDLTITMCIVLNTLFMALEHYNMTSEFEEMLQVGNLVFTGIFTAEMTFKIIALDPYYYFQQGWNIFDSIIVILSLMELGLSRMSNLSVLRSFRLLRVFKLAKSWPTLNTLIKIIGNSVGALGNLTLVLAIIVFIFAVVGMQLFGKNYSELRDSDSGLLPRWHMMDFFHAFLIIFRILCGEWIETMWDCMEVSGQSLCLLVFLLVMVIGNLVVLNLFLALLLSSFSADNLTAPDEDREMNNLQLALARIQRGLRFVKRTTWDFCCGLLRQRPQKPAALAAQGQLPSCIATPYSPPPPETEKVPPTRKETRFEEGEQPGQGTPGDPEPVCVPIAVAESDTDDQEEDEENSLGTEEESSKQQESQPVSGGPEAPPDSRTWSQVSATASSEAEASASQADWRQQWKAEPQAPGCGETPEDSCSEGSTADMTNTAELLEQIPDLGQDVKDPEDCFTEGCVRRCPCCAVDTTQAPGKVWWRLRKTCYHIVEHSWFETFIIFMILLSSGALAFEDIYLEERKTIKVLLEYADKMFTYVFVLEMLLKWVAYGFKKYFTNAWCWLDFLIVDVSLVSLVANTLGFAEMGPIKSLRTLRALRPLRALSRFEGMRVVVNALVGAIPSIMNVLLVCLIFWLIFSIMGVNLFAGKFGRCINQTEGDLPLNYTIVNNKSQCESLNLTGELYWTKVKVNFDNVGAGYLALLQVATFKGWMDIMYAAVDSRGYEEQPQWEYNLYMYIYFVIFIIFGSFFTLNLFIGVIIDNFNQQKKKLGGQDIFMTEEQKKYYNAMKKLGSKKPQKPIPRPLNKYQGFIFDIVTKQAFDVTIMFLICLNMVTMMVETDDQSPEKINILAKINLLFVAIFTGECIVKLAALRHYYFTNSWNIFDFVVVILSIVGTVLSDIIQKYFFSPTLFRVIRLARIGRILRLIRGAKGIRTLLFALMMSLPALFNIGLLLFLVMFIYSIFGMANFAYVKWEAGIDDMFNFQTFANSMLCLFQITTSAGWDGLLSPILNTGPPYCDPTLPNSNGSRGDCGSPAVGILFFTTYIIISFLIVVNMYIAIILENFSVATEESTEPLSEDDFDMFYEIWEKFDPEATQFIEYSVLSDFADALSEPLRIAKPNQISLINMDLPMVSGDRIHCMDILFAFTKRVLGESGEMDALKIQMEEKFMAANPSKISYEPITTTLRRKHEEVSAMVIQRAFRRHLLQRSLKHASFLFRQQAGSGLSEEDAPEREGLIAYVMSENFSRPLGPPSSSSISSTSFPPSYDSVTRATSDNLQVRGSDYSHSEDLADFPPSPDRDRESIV
Procedure: C. Method for Assessing the Extent of Inhibition of Sodium Channel Response with Compounds in hNav1.5-HEK293 Cells.
The following assay was used to assess the tendency of the test compounds to block the dominant cardiac sodium channel isoform. Nav1.5 sodium channels are known to be permeable to quaternary sodium channel blockers such as QX-314 and, thus, the assay was performed in the absence of a chemical TRPV1 agonist.
The hNav1.5-HEK-293 cells (CreaCell, France, a human embryonic kidney cell line expressing the human Nav1.5 sodium channel) were cultured in Growth medium (containing 1×DMEM (Gibco)+10% FBS (PAA Gold)+2% glutamine 100 mM (Gibco)+1% penicillin 10,000 U/mL streptomycin 10,000 μg/mL (Invitrogen)+1.2 mg/mL Geneticin® G418 (Invitrogen)) in 75 mL cell bind flasks (Corning). The following steps were followed exactly as mentioned. The spent medium was discarded and the cells rinsed once with PBS-1×. Accutase® (1-2 mL; PAA) solution was added. The plate was placed on a 37° C. warming incubator 3-5 minutes. As soon as cells are detached, 37° C. complete medium (9 mL) was added. The cell suspension is drawn into a sterile pipette and cells homogenized gently to dissociate cell aggregates. The cells were counted using a hemocytometer with Blue Trypan and then centrifuged 5 minutes at 400 g. The cells can be amplified or maintained by seeding […] in a T75 flask (final volume: 15 mL). 8000 cells in 50 μL Growth medium was added to each well of 384-well, clear bottomed, sterile poly-D-lysine coated plates with lid (Greiner-bio one) inside the laminar air-flow. The plates were incubated at 37° C. and 5% CO2 in a CO2 incubator (Thermo) for 48 hours.
On the day of the assay, cells were washed with Assay buffer, which was prepared using the components and amounts in the following Table 5. pH was adjusted to 7.4 with NaOH, volume made up to 500 mL with Milli-Q® water.
Assay Buffer was added to the cells and incubated at rt (25° C.) for 10 minutes. The compounds were diluted in assay buffer. The compounds were added and incubated at rt (25° C.) for 10 minutes. Red FMP Dye (MDC) was added to the cells and the plate was incubated at rt (25° C.) for 30 minutes. Veratridine stock (20 mM; Sigma) was prepared in DMSO; veratridine (final concentration of 30 μM) in assay buffer was added to each well of the cell seeded plates in the FLIPR and read taken for 10 minutes. The following table provides data illustrating the sodium channel activity of the test compounds in response to the presence or absence of heat stimulation in cells expressing hTRPV1. The compounds were tested for differential activity at 25° C. and 47° C. and at two test concentrations.

[4] = test compound 0.5%, lidocaine 2%, injection 200 μL
[5] = read-out: HEK Nav 1.5 IC50 (μM) (AVG)
[6] = test compound 0.5%, lidocaine 2%, injection 100 μL

Row | IC50 ([1]; 47° C.) | SMILES | hTRPV1-N1E Nav 0.1 mM (% inhibition) 25° C. [1] | hTRPV1-N1E Nav 0.1 mM (% inhibition) 47° C. [1] | Average Time of Analgesia [2, 4] | IC50 [3, 5] | IC50 ([3]; HEK Nav 1.5 IC50 (μM) (AVG)) | other results
1 | 10 to 100 µM | CC(C[N+](C)(C)C1CCCCC1)OC(=O)c1ccccc1C(C)C.[I-] (stereo not drawn) [Example 2, N-[2-((2-isopropylbenzoyl)oxy)propyl]-N,N-dimethylcyclohexanaminium iodide] | 23 (N = 4) % | 77 (N = 4) % | 12 h | 188 µM |  | hTRPV1-N1E Nav 1 mM (% inhibition) 25° C. [1]: 78 (N = 4) %; hTRPV1-N1E Nav 1 mM (% inhibition) 47° C. [1]: 89 (N = 4) %
2 | 10 to 100 µM | Cc1cc(C)c(C(=O)OC(C)C[N+](C)(C)C2CCC(C)CC2)c(C)c1.[I-] (stereo not drawn) [Example 39, N,N,4-Trimethyl-N-[2-((2,4,6-trimethyl-benzoyl)oxy)propyl] cyclohexanaminium iodide] | 41 (N = 4) % | 7 (N = 4) % |  | 89 µM |  | 
3 | 10 to 100 µM | Cc1cc(C)c(C(=O)OC(C)C[N+](C)(C)C2CCCCC2)c(C)c1.[I-] (stereo not drawn) [Example 1, N,N-dimethyl-N-[2-((2,4,6-trimethylbenzoyl)oxy)propyl]cyclohexanaminium iodide] | 13 (N = 4) % | 73 (N = 4) % |  | 240 µM |  | hTRPV1-N1E Nav 1 mM (% inhibition) 25° C. [1]: 53 (N = 4) %; hTRPV1-N1E Nav 1 mM (% inhibition) 47° C. [1]: 92 (N = 4) %; Average Time of Analgesia [2, 6]: 7 h
4 | 10 to 100 µM | CC(C[N+](C)(C)C1CCCCC1)OC(=O)c1sc2ccccc2c1Cl.[I-] (stereo not drawn) [Example 31, N-[2-((3-Chloro-benzo[b]thiophene-2-carbonyl)oxy)propyl]-N,N-dimethyl-cyclohexanaminium iodide] | 27 (N = 4) % | 94 (N = 4) % |  | 160 µM |  | 
5 | 10 to 100 µM | CC1CCC([N+](C)(C)CC(C)OC(=O)c2ccc(C(C)(C)C)cc2)CC1.[I-] (stereo not drawn) [Example 38, N-[2-((4-(tert-butyl)benzoyl)oxy)propyl]-N,N,4-trimethylcyclo-hexanaminium iodide] | 75 (N = 4) % | 95 (N = 4) % |  | 54 µM |  | 

The next lines start with the molecule.

Row | SMILES | IC50 ([1]; 47° C.) | hTRPV1-N1E Nav 0.1 mM (% inhibition) 25° C. [1] | hTRPV1-N1E Nav 0.1 mM (% inhibition) 47° C. [1] | Average Time of Analgesia [2, 4] | IC50 [3, 5] | IC50 ([3]; HEK Nav 1.5 IC50 (μM) (AVG)) | other results
6 | C[C@H](C[N+](C)(C)C1CCCCC1)OC(=O)c1ccc(C(C)(C)C)cc1.[I-] [Example 47, (R)-N-[2-((4-(tert-butyl)benzoyl)oxy)propyl]-N,N-dimethylcyclo-hexanaminium iodide] | 10 to 100 µM | 54 (N = 4) % |  | 24 h |  | 255 µM | 
7 | C[C@@H](C[N+](C)(C)C1CCCCC1)OC(=O)c1ccc(C(C)(C)C)cc1.[I-] [Example 46, (S)-N-[2-((4-(tert-butyl)benzoyl)oxy)propyl]-N,N-dimethylcyclo-hexanaminium iodide] |  | 40 (N = 4) % |  | 24 h |  | 232 µM | 
8 | C[C@H](C[N+](C)(C)C1CCCCC1)OC(=O)c1ccc(C(C)(C)C)cc1.[Br-] [Example 48, (R)-N-[2-((4-(tert-butyl)benzoyl)oxy)propyl]-N,N-dimethylcyclo-hexanaminium bromide] | 10 to 100 µM | 48 (N = 4) % |  |  |  | 252 µM | 
9 | CC(C[N+](C)(C)C1CCCCC1)OC(=O)c1ccc(C(C)(C)C)cc1.[I-] (stereo not drawn) [Example 12, N-[2-((4-(tert-Butyl)benzoyl)oxy)propyl]-N,N-dimethyl-cyclohexanaminium iodide] | 10 to 100 µM | 25 (N = 4) % | 84 (N = 4) % | 0.5 h |  | 134 µM | hTRPV1-N1E Nav 1 mM (% inhibition) 25° C. [1]: 17 (N = 4) %; hTRPV1-N1E Nav 1 mM (% inhibition) 47° C. [1]: 88 (N = 4) %
10 | C[C@@H](C[N+](C)(C)C1CCCCC1)OC(=O)c1ccc(C(C)(C)C)cc1.[Br-] [Example 5, (S)—N-[2-((4-(tert-butyl)benzoyl)oxy)propyl]-N,N-dimethylcyclohexanaminium bromide] | 10 to 100 µM | 45 (N = 4) % |  |  |  | 305 µM | paw withdrawal vocalization force ([2]; 0.45% solution with 2% lidocaine, FIG. 1): remained at cut-off for the duration of the experiment; Average Time of Analgesia ([2]; test compound 0.2%, lidocaine 2%, injection 200 μL): 2 h; Average Time of Analgesia ([2]; test compound 0.3%, lidocaine 2%, injection 200 μL): 24 h; Average Time of Analgesia ([2]; test compound 0.4%, lidocaine 2%, injection 200 μL): 44 h; Average Time of Analgesia ([2]; test compound 0.45%, lidocaine 2%, injection 200 μL): >64 h
11 | Cc1cccc(C)c1C(=O)OC(C)C[N+](C)(C)C1CCCCC1.[I-] (stereo not drawn) [Example 6, N-[2-((2,6-Dimethylbenzoyl)oxy)propyl]-N,N-dimethylcyclohexanaminium iodide] |  |  |  | 14 h and 10 h | 684 µM |  | hTRPV1-N1E Nav (% inhibition) 25° C., 0.5 mM ([1]; 0.5 mM, 25° C.): 24 (N = 2, %; hTRPV1-N1E Nav (% inhibition) 47° C., 0.5 mM ([1]; 0.5 mM, 47° C.): 80 (N = 2, %; hTRPV1-N1E Nav (% inhibition) 25° C., 5 mM ([1]; 5 mM, 25° C.): 58 (N = 2, %; hTRPV1-N1E Nav (% inhibition) 47° C., 5 mM ([1]; 5 mM, 47° C.): 92 (N = 2, %; hTRPV1-N1E IC50 (μM) 47° C. ([1]; 47° C.): B ′; analgesic effects in the absence of lidocaine ([2]; absence of lidocaine): analgesic effects of significant duration; Average Time of Analgesia ([2]; test compound 0.5%, lidocaine 0%, injection 200 μL): 5 h; Average Time of Analgesia [2, 6]: 8 h; inhibition at 10 min, 0.5 mM ([3]; human, hNav1.5-HEK293 cells (HEK-293 cells expressing human Nav1.5), pH 7.4, 0.5 mM, read-out: HEK Nay 1.5% inh. @ 0.5 mM): 30%; inhibition at 10 min, 1.5 mM ([3]; human, hNav1.5-HEK293 cells (HEK-293 cells expressing human Nav1.5), pH 7.4, 1.5 mM, read-out: HEK Nav 1.5% inh. @ 1.5 mM): 68%
